The text below walks through data of patent publication US10285982B2, “3-(1H-pyrrolo[2,3-B]pyridin-2-yl)-1H-pyrazolo[3,4-C]pyridines and therapeutic uses thereof” (Samumed, LLC, priority 2015, dated 2019).

Common to all, as to assay type: cell-based
Assay [1] has as its system Wnt activity (Sp5-Luc reporter, SW480 colon carcinoma cells). Briefly: Wnt activity screening assay, Sp5-Luc reporter gene in SW480 cells. As to conditions: Homo sapiens; for inhibition at 10 µM: given where EC50 >10 μM, read-out: percent inhibition at 10 μM; for EC50: overnight incubation. Summed up: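 SW480 cells stably transduced with an Sp5 promoter (eight TCF/LEF sites)–firefly luciferase lentiviral reporter, plated at 4,000 cells/well in 1% FBS medium with compounds (10-point 1:3 series from 10 μM, 0.1% DMSO) overnight at 37 °C. BrightGlo luminescence normalised to DMSO; EC50 by four-parameter fit, else % inhibition at 10 μM.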

The test system of another assay is IL-6 (THP-1 cells). In words: IL-6 inhibition in LPS-stimulated THP-1 cells (HTRF). As to conditions: Homo sapiens; for EC50: IL-6 in THP-1 cells, LPS 500 ng/mL, 22 hours; for inhibition at 10 µM: given where EC50 >10 μM, IL-6, THP-1 cells, LPS, read-out: percent inhibition at 10 μM. In a few lines:
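Readout is the 665/620 nm HTRF ratio for secreted IL-6, normalized to DMSO wells, with EC50 from a variable-slope four-parameter fit, or % inhibition at 10 μM when above 10 μM. Cells (1% FBS, 24 h beforehand) got compound for 2 h, then LPS 500 ng/mL for 22 h at 37° C; top dose 10 μM, 0.1% DMSO.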
On the technique in general: In TR-FRET formats the signal depends on donor and acceptor labels being close together.

The subject of another assay is SW480 colon cancer cells. Briefly: Cell viability assay (CellTiter-Blue). As to conditions: Homo sapiens, 96 h, four days; for inhibition at 10 µM: given where EC50 >10 μM, read-out: percent inhibition at 10 μM. In a few lines: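 4-day exposure, 37 °C/5% CO2; ~2×10^3 SW480 cells/well; 8-pt 1:3 curve, 10–0.0045 μM, duplicates vs DMSO controls. Resazurin→resorufin fluorescence readout, ~3 h. EC50 by nonlinear fit; if >10 μM, % inhibition at 10 μM reported.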

A word on the inhibition: it is the change of the read-out against control, counted positive when it falls. As a reminder, the EC50 is the concentration at which the effect is half-maximal. A higher EC50 goes with weaker potency. Turning to `CCCC(=O)Nc1cncc(-c2cc3c(-c4cc5c(-c6cc(F)cc(NCCN(C)C)c6)ccnc5[nH]4)n[nH]c3cn2)c1` [Compound 465, N-(5-(3-(4-(3-((2-(Dimethylamino)ethyl)amino)-5-fluorophenyl)-1H-pyrrolo [2,3-b]pyridin-2-yl)-1H-pyrazolo[3,4-c]pyridin-5-yl)pyridin-3-yl)butyramide], the inhibition at 10 µM in assay [1] was 16.1%; in the assay with IL-6 (THP-1 cells) it was 21.5%; in the assay with SW480 colon cancer cells it was 10.6%. Also, the EC50 (in assay [1]; in the assay with IL-6 (THP-1 cells); in the assay with SW480 colon cancer cells) was > 10 µM each time.

`O=C(Nc1cncc(-c2cc3c(-c4cc5cccnc5[nH]4)n[nH]c3cn2)c1)C1CC1` [Compound 272, N-(5-(3-(1H-Pyrrolo[2,3-b]pyridin-2-yl)-1H-pyrazolo[3,4-c]pyridin-5-yl)pyridin-3-yl)cyclopropanecarboxamide]: the inhibition at 10 µM in assay [1] amounted to 19.3%; in the assay with SW480 colon cancer cells, 23.3%. The EC50 was > 10 µM in assay [1], 3.06 µM in the assay on IL-6 (THP-1 cells) and > 10 µM in the assay with SW480 colon cancer cells.

Regarding `FC1(F)CCN(Cc2cncc(-c3cc4c(-c5cc6cccnc6[nH]5)n[nH]c4cn3)c2)C1` [Compound 278, 5-(5-((3,3-Difluoropyrrolidin-1-yl)methyl)pyridin-3-yl)-3-(1H-pyrrolo[2,3-b]pyridin-2-yl)-1H-pyrazolo[3,4-c]pyridine], the EC50 in assay [1] came to 1.35 µM; with IL-6 (THP-1 cells) it was 0.029 µM; in the assay on SW480 colon cancer cells it was 5.01 µM.

In the case of `Fc1cccc(-c2ccnc3[nH]c(-c4n[nH]c5cnc(-c6cncnc6)cc45)cc23)c1` [Compound 27, 3-(4-(3-Fluorophenyl)-1H-pyrrolo[2,3-b]pyridin-2-yl)-5-(pyrimidin-5-yl)-1H-pyrazolo[3,4-c]pyridine], the EC50 was 0.507 µM in assay [1], > 10 µM in the assay with IL-6 (THP-1 cells) and > 10 µM with SW480 colon cancer cells. Also, the inhibition at 10 µM in the assay with IL-6 (THP-1 cells) was found to be 43.9%; in the assay with SW480 colon cancer cells, 41.2%.

For `CN1CCN(c2ccnc3[nH]c(-c4n[nH]c5cnc(-c6cn[nH]c6)cc45)cc23)CC1` [Compound 635, 3-(4-(4-Methylpiperazin-1-yl)-1H-pyrrolo[2,3-b]pyridin-2-yl)-5-(1H-pyrazol-4-yl)-1H-pyrazolo[3,4-c]pyridine], the figures for the inhibition at 10 µM (in assay [1]; in the assay on IL-6 (THP-1 cells); in the assay on SW480 colon cancer cells) were 25.4%, 10.9% and 10.7%, respectively. The EC50 (in assay [1]; in the assay with IL-6 (THP-1 cells); in the assay on SW480 colon cancer cells) was > 10 µM throughout.

For the compound `CC(C)C(=O)Nc1cncc(-c2cc3c(-c4cc5c(-c6ccc(F)cc6)ccnc5[nH]4)n[nH]c3cn2)c1` [Compound 37, N-(5-(3-(4-(4-Fluorophenyl)-1H-pyrrolo[2,3-b]pyridin-2-yl)-1H-pyrazolo [3,4-c]pyridin-5-yl)pyridin-3-yl)isobutyramide], the EC50 in assay [1] is 0.671 µM; in the assay with IL-6 (THP-1 cells) it was > 10 µM; in the assay with SW480 colon cancer cells it was 2.69 µM. Further, the inhibition at 10 µM with IL-6 (THP-1 cells) is 25.4%.

Take `Fc1cccc(-c2ccnc3[nH]c(-c4n[nH]c5cnc(-c6cncc(CN7CCCC7)c6)cc45)cc23)c1` [Compound 14, 3-(4-(3-Fluorophenyl)-1H-pyrrolo[2,3-b]pyridin-2-yl)-5-(5-(pyrrolidin-1-ylmethyl)pyridin-3-yl)-1H-pyrazolo[3,4-c]pyridine]: the figures for the inhibition at 10 µM (in assay [1]; in the assay on IL-6 (THP-1 cells); with SW480 colon cancer cells) were 22.8%, 21.6% and 13.3%, respectively. Moreover, the EC50 (in assay [1]; in the assay with IL-6 (THP-1 cells); in the assay on SW480 colon cancer cells) was > 10 µM each time.

Regarding `Cc1ccncc1-c1cc2c(-c3cc4c(-c5ccncc5)ccnc4[nH]3)n[nH]c2cn1` [Compound 117, 5-(4-Methylpyridin-3-yl)-3-(4-(pyridin-4-yl)-1H-pyrrolo[2,3-b]pyridin-2-yl)-1H-pyrazolo[3,4-c]pyridine], the inhibition at 10 µM in assay [1] amounted to 42.4%; in the assay with IL-6 (THP-1 cells), 15.9%. Further, the EC50 in assay [1] was > 10 µM; in the assay on IL-6 (THP-1 cells), > 10 µM; in the assay on SW480 colon cancer cells it was 8.43 µM.

Turning to `O=C(Nc1cncc(-c2cc3c(-c4cc5c(-c6ccncc6)ccnc5[nH]4)n[nH]c3cn2)c1)C1CCCCC1` [Compound 135, N-(5-(3-(4-(Pyridin-4-yl)-1H-pyrrolo[2,3-b]pyridin-2-yl)-1H-pyrazolo[3,4-c]pyridin-5-yl)pyridin-3-yl)cyclohexanecarboxamide], the inhibition at 10 µM in assay [1] was found to be 13%; with IL-6 (THP-1 cells), 17.8%; in the assay on SW480 colon cancer cells, 10.3%. Moreover, the EC50 (in assay [1]; in the assay with IL-6 (THP-1 cells); with SW480 colon cancer cells) was > 10 µM throughout.

`O=C(Cc1ccccc1)Nc1cncc(-c2cc3c(-c4cc5cccnc5[nH]4)n[nH]c3cn2)c1` [Compound 262, N-(5-(3-(1H-Pyrrolo[2,3-b]pyridin-2-yl)-1H-pyrazolo[3,4-c]pyridin-5-yl)pyridin-3-yl)-2-phenylacetamide]: the values for the inhibition at 10 µM (in assay [1]; with IL-6 (THP-1 cells); with SW480 colon cancer cells) were 9.1%, 26.7% and 26.5%, respectively. Besides, the EC50 (in assay [1]; with IL-6 (THP-1 cells); in the assay with SW480 colon cancer cells) was > 10 µM each time.

For the compound `O=C(Nc1cncc(-c2cc3c(-c4cc5c(-c6cccc(F)c6)ccnc5[nH]4)n[nH]c3cn2)c1)C1CC1` [Compound 20, N-(5-(3-(4-(3-Fluorophenyl)-1H-pyrrolo[2,3-b]pyridin-2-yl)-1H-pyrazolo [3,4-c]pyridin-5-yl)pyridin-3-yl)cyclopropanecarboxamide], the values for the EC50 (in assay [1]; with IL-6 (THP-1 cells); in the assay with SW480 colon cancer cells) were 0.097 µM, > 10 µM and 0.159 µM, respectively. Moreover, the inhibition at 10 µM with IL-6 (THP-1 cells) is 42.8%.

Take `CC(C)(C)C(=O)Nc1cncc(-c2cc3c(-c4cc5c(-c6cccc(F)c6)ccnc5[nH]4)n[nH]c3cn2)c1` [Compound 8, N-(5-(3-(4-(3-Fluorophenyl)-1H-pyrrolo[2,3-b]pyridin-2-yl)-1H-pyrazolo [3,4-c]pyridin-5-yl)pyridin-3-yl)pivalamide]: the EC50 in assay [1] was 0.073 µM; with IL-6 (THP-1 cells), > 10 µM; with SW480 colon cancer cells, 0.723 µM. Further, in the assay with IL-6 (THP-1 cells), the inhibition at 10 µM was 45.4%.

As to `O=C(Nc1cncc(-c2cc3c(-c4cc5c(-c6cccnc6)ccnc5[nH]4)n[nH]c3cn2)c1)c1ccccc1` [Compound 95, N-(5-(3-(4-(Pyridin-3-yl)-1H-pyrrolo[2,3-b]pyridin-2-yl)-1H-pyrazolo[3,4-c]pyridin-5-yl)pyridin-3-yl)benzamide], the figures for the inhibition at 10 µM (in assay [1]; with IL-6 (THP-1 cells); with SW480 colon cancer cells) were 8.7%, 31.8% and 14.2%, respectively. Also, the EC50 (in assay [1]; in the assay with IL-6 (THP-1 cells); with SW480 colon cancer cells) was > 10 µM in each case.

Consider `Nc1cncc(-c2cc3c(-c4cc5c(-c6ccoc6)ccnc5[nH]4)n[nH]c3cn2)c1` [Compound 311, 5-(3-(4-(Furan-3-yl)-1H-pyrrolo[2,3-b]pyridin-2-yl)-1H-pyrazolo[3,4-c]pyridin-5-yl)pyridin-3-amine], for which the inhibition at 10 µM in assay [1] stood at 23.2%; in the assay on IL-6 (THP-1 cells), 36.3%; in the assay on SW480 colon cancer cells, 5.5%. The EC50 (in assay [1]; with IL-6 (THP-1 cells); in the assay with SW480 colon cancer cells) was > 10 µM throughout.
